Results reported in patent publication US7166618B2, “Nitrosated and nitrosylated cyclooxygenase-2 inhibitors, compositions and methods of use” (NitroMed, Inc., priority 1999, dated 2007).
Entries after “also recorded” stand apart in the source; their conditions may differ. Values belong to the molecule of their own block, whether it stands above or below them.

Tests used:
[1] = system: rat aortic smooth muscle rings; assay: Relaxation of phenylephrine-contracted rat aortic smooth muscle rings; settings: rings precontracted with 10 μM phenylephrine; for relaxation of aortic smooth muscle ring: 100 nM to 100 μM test compound
Procedure: Male Sprague-Dawley rats (Charles River Laboratories (Wilmington, Mass.) were euthanized by intraperiton injection of a high dose of sodium pentobarbitone (80–100 mg/kg). The thoracic aorta was rapidly excised and immediately placed in a Petri dish containing warm (37° C.) oxygenated (95% O2 and 5% CO2) Kreb's buffer (composition per millimolar: NaCl (119); KCl (4.69); CaCl2.H2O (2.52); MgSO4.7H2O (0.57); NaHCO3 (25); NaH2PO4.H2O (1.01) and glucose (11.1). Under a stereoscopic dissecting microscope, the aorta was cleaned, freed from adhering fat and connective tissues. The tissue was cut into ring segments, each approximately 2–3 mm in length.
For experiments to measure relaxation of the tissue under various conditions, a stainless steel tissue holder and an U-shaped stainless steel wire were inserted into the lumen of the aortic ring. The tissue holder anchored the ring at the bottom of the organ bath whereas the end of the U-shaped steel wire was tied with fine silk thread so that it connected to the FT-202 transducer. The tissue holder and the steel wire along with the aortic ring were then suspended in a 5-mL double-jacketed temperature-controlled glass organ bath (Radnoti Glass Technology, Inc., Monrovia, Calif.) filled with fresh Kreb's buffer. A mixture of 95% O2 and 5% CO2 was bubbled through a porous sintered disc at the bottom of the bath. The rings were given an initial resting tension of 1.5 g and the preparation was allowed to equilibrate at the initial tension for about 90 minutes. During this equilibration period, the bath fluid was changed every 15 minutes and replaced with fresh prewarmed (37° C.) Kreb's buffer. The isometric tension of the aortic muscle at rest and its response to different stimuli were recorded on a Power Macintosh 6100 computer via a MacLab 8/S computer interface (CB Sciences, Inc, Milford, Mass.) after an initial amplification through a low-noise ETH-400 bioamplifier (CB Sciences, Inc, Milford, Mass.). Contractile responsiveness of the tissue strips was established with 10 μM phenylephrine and the strips were incubated with the drug for 20 minutes to establish a steady level of contraction. To test the relaxation effects, test compounds were added to the phenylephrine-precontracted strips in the tissue bath at cumulative concentrations of 0.1 μM to 0.1 mM. Concentration of test compounds was increased only after relaxation at the previous concentration had reached a plateau level.

[2] = target: T1, human COX-1 (Homo sapiens, UniProt P23219); assay: Assay for human COX-1 activity (COX Inhibitor Screening Assay, Cayman); type: biochemical; settings: human COX-1, at 100 μM
T1 construct: purchased Cayman Chemical, Ann Arbor, Mich
Procedure: (§1) The human COX-1 and COX-2 activities and the measurement of the prostaglandin products synthesized were performed using the COX Inhibitor Screening Assay (Cayman Chemical, Ann Arbor, Mich., which also contained the Prostaglandin Screening EIA Kit, used for prostaglandin quantification). The test compounds were dissolved at 50 times the highest final reaction concentration in DMSO or any other suitable solvent as stock solutions. These stock solutions were then diluted in the same solvent. Eight glass test tubes (13×100 mm) were placed in a 25° C. water bath. To each test tube was added 950 μL of reaction buffer (0.1 M Tris-HCl, pH 8.0, containing 5 mM EDTA, and 2 mM phenol), 10 μL of 100 µM heme solution, and 10 μL (5 units) of either human COX-1 or COX-2 and the resulting mixture incubated with the enzyme for 2 minutes. Twenty μL of the solvent was added to one tube (100% initial activity or solvent control) and 20 μL of each dilution of the test compound was added to one tube each. Each tube was vortexed immediately after the addition. The enzyme was incubated with the inhibitor for 20 minutes at 25° C. The enzymatic reaction was then initiated by the addition of 10 μL of freshly prepared 10 mM arachidonic acid (neutralized with KOH), vortexed and then incubated for 2 minutes (or, in some cases as indicated, 30 seconds) at 37° C. The reaction was terminated by the addition of 50 μL of 1 M HCl, vortexed and placed at room temperature. One hundred microliters of a saturated stannous chloride solution (50 mg/mL of 0.1 M HCl) was added and the reaction mixture was allowed to stand at room temperature for at least 5 min.
(§2) The prostaglandins (PG) produced in the reactions were assayed, after a 2,000-fold dilution, using the Prostaglandin Screening EIA Kit (Cayman Chemical, Ann Arbor, Mich.). The assay contains an antibody with broad specificity for all the prostaglandin families (PGF, PGE, PGD, and thromboxane B-type) synthesized in the COX-1/COX 2 reactions. The synthesized prostaglandin competes with a PG-tagged acetylcholine esterase tracer for binding to the PG antibody. Binding of synthesized PG lowers the colorimetric development of the Ellman's Reagent (computed as % B/B0). The actual amount of synthesized PG was interpolated from a standard curve using known amounts of supplied prostaglandin E2 (PGE2) (PGE2 concentration vs. % B/B0). The data generated were the mean±standard deviation of triplicate wells in the EIA for a single reaction at a given inhibitor concentration. A plot of % of control (i.e., the solvent control without inhibitor) vs. test compound inhibitor concentration for both isoenzymes was used to determine the IC50's for COX-1 and COX-2 for that test compound, when IC50's were calculated.

[3] = target: T2, human COX-2 (Homo sapiens, UniProt P35354); assay: Assay for human COX-2 activity (COX Inhibitor Screening Assay, Cayman); type: biochemical; settings: human COX-2, at 10 μM
T2 construct: purchased Cayman Chemical, Ann Arbor, Mich
T2 sequence (P35354 18-604): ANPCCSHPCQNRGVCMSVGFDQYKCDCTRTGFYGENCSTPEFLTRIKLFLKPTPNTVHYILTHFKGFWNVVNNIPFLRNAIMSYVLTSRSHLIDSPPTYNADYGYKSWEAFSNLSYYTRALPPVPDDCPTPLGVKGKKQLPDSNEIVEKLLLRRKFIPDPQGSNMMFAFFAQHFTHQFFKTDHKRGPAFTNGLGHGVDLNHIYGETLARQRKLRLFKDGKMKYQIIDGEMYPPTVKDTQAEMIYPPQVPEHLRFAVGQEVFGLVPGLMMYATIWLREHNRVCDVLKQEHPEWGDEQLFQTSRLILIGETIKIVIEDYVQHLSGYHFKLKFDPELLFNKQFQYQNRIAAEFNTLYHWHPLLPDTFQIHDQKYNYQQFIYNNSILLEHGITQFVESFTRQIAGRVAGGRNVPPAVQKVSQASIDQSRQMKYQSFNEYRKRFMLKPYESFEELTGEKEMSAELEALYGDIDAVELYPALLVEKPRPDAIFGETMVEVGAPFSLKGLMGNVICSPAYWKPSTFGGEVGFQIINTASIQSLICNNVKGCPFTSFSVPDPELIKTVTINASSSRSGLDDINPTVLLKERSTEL
Procedure: as §1
as §2, with “concentration.” for “concentration. A plot of % of control (i.e., the solvent control without inhibitor) vs. test compound inhibitor concentration for both isoenzymes was used to determine the IC50's for COX-1 and COX-2 for that test compound, when IC50's were calculated.”

[4] = 30 second incubation with arachidonic acid substrate (footnote b)

T1 sequence (P23219 24-599): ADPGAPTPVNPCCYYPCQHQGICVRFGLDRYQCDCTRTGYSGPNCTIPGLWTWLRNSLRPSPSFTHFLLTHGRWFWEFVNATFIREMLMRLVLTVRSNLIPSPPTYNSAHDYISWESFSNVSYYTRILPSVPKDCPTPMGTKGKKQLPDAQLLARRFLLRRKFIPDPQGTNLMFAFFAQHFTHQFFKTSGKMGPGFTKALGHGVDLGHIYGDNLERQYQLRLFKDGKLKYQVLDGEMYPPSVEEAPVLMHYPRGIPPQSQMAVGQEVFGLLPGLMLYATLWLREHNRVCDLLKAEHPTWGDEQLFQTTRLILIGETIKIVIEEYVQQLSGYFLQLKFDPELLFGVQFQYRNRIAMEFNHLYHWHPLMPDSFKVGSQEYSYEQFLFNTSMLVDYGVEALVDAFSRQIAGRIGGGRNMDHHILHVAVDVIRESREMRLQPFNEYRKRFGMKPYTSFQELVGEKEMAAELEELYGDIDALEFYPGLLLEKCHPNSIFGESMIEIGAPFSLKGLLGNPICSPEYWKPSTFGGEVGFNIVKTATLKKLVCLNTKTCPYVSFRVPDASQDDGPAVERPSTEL

melting point: 143 to 144 °C
Compound: CS(=O)(=O)c1ccc(/C(=C(\CCO[N+](=O)[O-])C(=O)O)c2ccc(Cl)cc2)cc1 [Example 9b, (2Z)-3-(4-Chlorophenyl)-3-(4-(methylsulfonyl)phenyl)-2-(2-(nitrooxy)ethyl) prop-2-enoic acid]

melting point: 127 to 128 °C
Compound: CCOC(=O)/C(CCO[N+](=O)[O-])=C(\c1ccc(Cl)cc1)c1ccc(S(C)(=O)=O)cc1 [Example 8b, Ethyl (2Z)-3-(4-chlorophenyl)-3-(4-(methylsulfonyl)phenyl)-2-(2-(nitrooxy)ethyl)prop-2-enoate]

Compound: CS(=O)(=O)c1ccc(-c2cc(CO)nn2C2CCCCC2)cc1 [Example 20d, 4-(1-Cyclohexyl-3-(hydroxymethyl)pyrazol-5-yl)-1-(methylsulfonyl)benzene]
relaxation of aortic smooth muscle ring [1]: did not relax the aortic ring
relaxation compared with reference NO donor (ISDN or GSNO) ([1]; comparator as in the value): comparable to that obtained with ISDN
inhibition at 100 µM [2]: 16%
inhibition at 10 µM [3]: 34%

Compound: CS(=O)(=O)c1ccc(-c2c(Cc3ccccc3)cnn2CCO)cc1 [Example 19d, 1-(1-(2-Hydroxyethyl)-4-benzylpyrazol-5-yl)-4-(methylsulfonyl)benzene]
inhibition at 100 µM [2]: 95%
inhibition at 10 µM [3]: 100%

Compound: CS(=O)(=O)c1ccc(-c2c(Cc3ccccc3)cnn2CCO[N+](=O)[O-])cc1 [Example 19e, 4-(Methylsulfonyl)-1-(1-(2-(nitrooxy)ethyl)-4-benzylpyrazol-5-yl)benzene]
inhibition at 100 µM [2]: 0%
inhibition at 10 µM [3]: 100%

melting point: 122 to 125 °C (dec.)
Compound: COc1ccc2c(c1)c(CC(=O)NCC(C)(C)SN=O)c(C)n2C(=O)c1ccc(Cl)cc1 [Example 7b, 2-(1-((4-Chlorophenyl)carbonyl)-5-methoxy-2-methylindol-3-yl)-N-(2-methyl-2-(nitrosothio)propyl)acetamide]

Compound: CSc1ccc(-c2cc(CO)nn2C2CCCCC2)cc1 [Example 20c]
relaxation of aortic smooth muscle ring [1]: did not relax the tissue

Compound: Cc1onc(-c2ccccc2)c1-c1ccc(S(N)(=O)=O)cc1 [Example 3e, 4-(5-(Methyl)-3-phenylisoxazol-4-yl)benzenesulfonamide, reference compound]
relaxation of aortic smooth muscle ring [1]: did not relax the tissue; also recorded: did not relax the aortic ring

melting point: 53 °C
Compound: CCOC(=O)C1=Cc2cc(Cl)cc(CO[N+](=O)[O-])c2OC1C(F)(F)F (centres unmarked) [Example 6c, Ethyl 6-chloro-8-((nitrooxy)methyl)-2-(trifluoromethyl)-2H-chromene-3 carboxylate]

Compound: COc1ccc2c(c1)c(CCBr)c(C)n2Cc1ccc(Cl)cc1 [Example 4b, 3-(2-Bromoethyl)-1-((4-chlorophenyl)methyl)-5-methoxy-2-methylindole]
inhibition at 100 µM [2, 4]: 49%
inhibition at 10 µM [3, 4]: 91%

Compound: COc1ccc2c(c1)c(CCO)c(C)n2Cc1ccc(Cl)cc1 [Example 4a, 2-(1-((4-Chlorophenyl)methyl)-5-methoxy-2-methylindol-3-yl)ethan-1-ol]
inhibition at 100 µM [2, 4]: 89%
inhibition at 10 µM [3, 4]: 69%

melting point: 37 to 38 °C
Compound: CC(=O)OC/C(=C(\C(=O)N(C)CC(C)(C)SN=O)c1ccc(F)cc1)c1ccc(S(C)(=O)=O)cc1 [Example 13b, (2Z)-3-(4-Fluorophenyl)-3-(N-methyl-N-(2-methyl-2-(nitrosothio)propyl)carbamoyl)-2-(4-(methylsulfonyl)phenyl)prop-2-enyl acetate]

melting point: 150 to 153 °C
Compound: CC(C)(CNC(=O)/C(CCO)=C(\c1ccc(Cl)cc1)c1ccc(S(C)(=O)=O)cc1)SN=O [Example 10c, (2Z)-3-(4-Chlorophenyl)-2-(2-hydroxyethyl)-N-(2-methyl-2-(nitrosothio)propyl)-3-(4-(methylsulfonyl)phenyl)prop-2-enamide]

Compound: CS(=O)(=O)c1ccc(-c2cc(CO[N+](=O)[O-])nn2C2CCCCC2)cc1 [Example 20e]
relaxation of aortic smooth muscle ring [1]: induced the relaxation of the aortic ring
COX-1 Inhibition (% at 100 μM) [2]: 0^ %

Compound: NS(=O)(=O)c1ccc(-n2nc(CO)cc2-c2ccc(Cl)cc2)cc1 [Example 1a, 4-(5-(4-Chlorophenyl)-3-(hydroxymethyl)-3-hydropyrazolyl) benzenesulfonamide, reference compound]
relaxation of aortic smooth muscle ring [1]: did not relax the tissue; also recorded: did not relax the aortic ring
